11 compounds from ChEMBL document CHEMBL1240331, “Chemical genetic interrogation of natural variation uncovers a molecule that is glycoactivated” (Nat Chem Biol, 2007) can be followed below.

Calls of active or inactive are those of the source. The rule behind the calls is not given here.

What all share (type): functional, organism-based
The test system of test [1] is Arabidopsis thaliana. Description: Growth inhibition of Arabidopsis thaliana ecotype Rld-2 assessed as decrease in hypocotyl length.
The test system of test [2] is Arabidopsis thaliana. The experiment in a line: Growth inhibition of Arabidopsis thaliana ecotype LIN assessed as inhibition of germination.
In test [3] the test system is Arabidopsis thaliana. Description: Growth inhibition of Arabidopsis thaliana ecotype CSH-1 assessed as inhibition of germination.
For test [4], the system named is Arabidopsis thaliana. The experiment in a line: Growth inhibition of Arabidopsis thaliana ecotype Columbia assessed as inhibition of germination.
The subject of test [5] is Arabidopsis thaliana. The experiment in a line: Growth inhibition of Arabidopsis thaliana ecotype Ra-0 assessed as inhibition of germination.
The test system of test [6] is Arabidopsis thaliana. The experiment in a line: Growth inhibition of Arabidopsis thaliana ecotype Columbia assessed as inhibition of germination at 100 uM.
Test [7] has as its system Arabidopsis thaliana. Description: Growth inhibition of Arabidopsis thaliana ecotype Pog-0 assessed as inhibition of germination.
The test system of test [8] is Arabidopsis thaliana. The experiment in a line: Growth inhibition of Arabidopsis thaliana ecotype Br-0 assessed as inhibition of germination.
The test system of test [9] is Arabidopsis thaliana. Description: Growth inhibition of Arabidopsis thaliana ecotype KZ1 assessed as inhibition of germination.
Test [10] deals with Arabidopsis thaliana. Description: Growth inhibition of Arabidopsis thaliana ecotype Kyoto assessed as inhibition of germination.
In test [11] the test system is Arabidopsis thaliana. Description: Growth inhibition of Arabidopsis thaliana ecotype Co assessed as inhibition of germination.
Test [12] relates to Arabidopsis thaliana. Description: Growth inhibition of Arabidopsis thaliana ecotype Ull2-3 assessed as inhibition of germination.
In test [13] the test system is Arabidopsis thaliana. The experiment in a line: Growth inhibition of Arabidopsis thaliana ecotype RRS7 assessed as decrease in root length.
Test [14] deals with Arabidopsis thaliana. Description: Growth inhibition of Arabidopsis thaliana ecotype Columbia assessed as decrease in root length.

For `CCOC(=O)N1CCN(c2cc(C)c3ccc(Cl)cc3n2)CC1` [POLARAZINE], the IC50 with Arabidopsis thaliana [1] came to 13 µM.
For the compound `O=C(c1ccccc1Cl)c1coc2ccccc2c1=O`, in the test on Arabidopsis thaliana [2], the half-maximal inhibitory concentration (IC50) is ≤ 14 µM.
Consider `CCOc1ccc(S(=O)(=O)NCc2ccccn2)c2ccccc12` [PYRABACTIN B], for which the values for the IC50 in the test on Arabidopsis thaliana [3] and in the test with Arabidopsis thaliana [4] were 2.5 µM and 8.4 µM, respectively.
Turning to `CC1CCC(C(C)C)C(=O)/C1=C\c1ccc(N)cc1` (stereo not drawn), in the test with Arabidopsis thaliana [5], the IC50 was determined as 7 µM. Also, the “growth inhibition (GI)” value in the test with Arabidopsis thaliana [6] was “inactive”.
Take `COc1ccc2occ(C(=O)c3ccccc3Cl)c(=O)c2c1`: the half-maximal inhibitory concentration (IC50) in the test on Arabidopsis thaliana [7] worked out at 3 µM.
`O=[N+]([O-])c1ccc(CN2CCCCC2c2cccnc2)cc1` (stereo not drawn): in the test on Arabidopsis thaliana [8], the IC50 is 3 µM. Moreover, the “growth inhibition (GI)” value in the test on Arabidopsis thaliana [6] was “inactive”.
As for `O=S(=O)(NCc1ccccn1)c1ccc(Br)c2ccccc12` [PYRABACTIN A], the half-inhibitory concentration (IC50) in the test on Arabidopsis thaliana [9] was determined as 2.2 µM.
As for `CCN(CC)c1ccc(C(=O)c2ccccc2C(=O)O)c(O)c1`, in the test with Arabidopsis thaliana [10], the IC50 amounted to 12.5 µM. Moreover, the “growth inhibition (GI)” value in the test with Arabidopsis thaliana [6] is “inactive”.
For the compound `CCc1ccc(CN2CCCCC2c2cccnc2)cc1` (stereo not drawn), the IC50 with Arabidopsis thaliana [11] came out at 10 µM. In addition, the “growth inhibition (GI)” value with Arabidopsis thaliana [6] is “inactive”.
As to `OC(c1ccccc1)(c1ccccc1)c1c[nH]cn1`, the IC50 in the test on Arabidopsis thaliana [12] came out at 17 µM. Further, the “growth inhibition (GI)” value in the test with Arabidopsis thaliana [6] was “inactive”.
On to `Cc1ccc(C(C)C)c(OCC(=O)N/N=C/c2cccnc2)c1` [CHUBOXYPYR], for which the IC50 in the test on Arabidopsis thaliana [13] is 22 µM; in the test with Arabidopsis thaliana [14], 80 µM.
